Source: publication PMC8145535, “New Acyl Derivatives of 3-Aminofurazanes and Their Antiplasmodial Activities” (Pharmaceuticals, 2021)
Like-named read-outs stand apart in the source and are kept apart here.

Legend:
P. falciparum NF54 = test: In vitro 3H-hypoxanthine incorporation assay, erythrocytic stages, NF54 strain; assay type: cell-based, Plasmodium falciparum; conditions: average of four determinations, read-out: P.f. NF54 IC50
Method: (§1) Chloroquine (Sigma C6628) was used as standard. […] Serial drug dilutions of 11 3-fold dilution steps covering a range from 100 to 0.002 μg/mL were prepared. The 96-well plates were incubated in a humidified atmosphere at 37 °C; 4% CO2, 3% O2, 93% N2. […] The plates were incubated for a further 24 h under the same conditions. The plates were then harvested with a Betaplate cell harvester (Wallac, Zurich, Switzerland). The red blood cells were transferred onto a glass fiber filter and washed with distilled water. The dried filters were inserted into a plastic foil with 10 mL of scintillation fluid and counted in a Betaplate liquid scintillation counter (Wallac, Zurich, Switzerland).

in vitro = conditions: rat
Method: Serial drug dilutions of 11 3-fold dilution steps covering a range from 100 to 0.002 μg/mL were prepared. After 70 h of incubation, the plates were inspected under an inverted microscope to assure the growth of the controls and sterile conditions. […] Then, the plates were read with a Spectramax Gemini XS microplate fluorometer (Molecular Devices Cooperation, Sunnyvale, CA, USA) using an excitation wavelength of 536 nm and an emission wavelength of 588 nm. […] Podophyllotoxin (Sigma P4405) was used as control.

[1] = Parallel artificial membrane permeability assay (PAMPA); assay type: in vitro ADME; conditions: pH 7.4, 200 µM in PBS, room temperature; for Papp at 5 h, 200 µM: pH 7.4, PAMPA, read-out: Pe (effective permeability)
Method: The PAMPA was performed using a 96-well precoated Corning Gentest PAMPA plate at a pH of 7.4. The PAMPA plate system consists of a donor plate and an acceptor plate. When both plates are coupled, each well is divided into two chambers that are separated by a lipid–oil–lipid trilayer constructed in a porous filter. Stock solutions (10 mM) of each compound were prepared in DMSO and then further diluted to a concentration of 200 µM in phosphate-buffered saline (PBS) at pH 7.4. The compound dissolved in PBS was then added to the donor plate and pure PBS was added to the acceptor plate. Four replicates of each compound and negative control (PBS) were transferred into different wells of the donor plate. Both plates were coupled and left at room temperature for 5 h. Then, the plates were separated, and the solutions of each donor well and acceptor well were transferred to 96-well UV-Star Microplates (Greiner Bio-One). The UV absorbance of compounds in donor wells and acceptor wells were analyzed by a SpectraMax M3 UV plate reader (Molecular Devices). The concentrations were received from a calibration curve for each substance. The plates were analyzed at a wavelength where the R^2 value of the calibration curve was higher than 0.99 [34]. The effective permeability (Pe) was calculated as shown in the following Equations (1)–(3):(1) Penm/s=10^7∗−ln1−cAt/cequ/S∗1/VD+1/VA∗ t where:
cequ—equilibrium concentration. (2) cequ=cDt ∗VD+cAt ∗VA/VD+VA where:
Recovery of compounds from donor and acceptor wells (mass retention) was calculated as shown in the equation below. Data were only accepted when recovery exceeded 70%.

P. falciparum K1 = test: In vitro 3H-hypoxanthine incorporation assay, erythrocytic stages, K1 strain; assay type: cell-based; conditions: Plasmodium falciparum
Method: as §1

[2] = test system: multiresistant strain K1 of Plasmodium falciparum; design: method as in PMID 27467575; conditions: MMV Malaria Box; cited from earlier work
[3] = test system: multiresistant strain Dd2 of Plasmodium falciparum; design: method as in PMID 27467575; conditions: MMV Malaria Box; cited from earlier work
[4] = test system: P. berghei liver schizonts; design: method as in PMID 27275010, PMID 16242190; conditions: P. berghei assay; cited from earlier work
early gametocyte stages = test system: early gametocyte stages; design: method as in PMID 24060871, PMID 23234555, PMID 26787698, PMID 26749441, PMID 17521751; conditions: cited from earlier work
Na+-efflux pump PfATP4 = test system: Na+-efflux pump PfATP4; design: method as in PMID 25145582, PMID 33023071, PMID 19956997, PMID 25715757; conditions: possible target; cited from earlier work
[5] = Plasmodium falciparum, NF54, chloroquine-sensitive strain
[6] = K1, strain resistant to chloroquine and pyrimethamine, average of four determinations, read-out: P.f. K1 IC50

Compound | IC50 (P. falciparum NF54; [5]) | IC50 at 72 h (in vitro) | Papp at 5 h, 200 µM [1] | melting point | IC50 (P. falciparum K1; [6]) | other results
CCOc1ccc(-c2nonc2NC(=O)c2cccc(CN3CCOCC3)c2)cc1OCC [Compound 29, N-(4-(3,4-Diethoxyphenyl)-1,2,5-oxadiazol-3-yl)-3-((morpholin-4-yl)methyl)benzamide] | 0.712 µM | 104 µM | 5.65 ×10⁻⁶ cm/s | 199 °C |  | 
CCOc1ccc(-c2nonc2NC(=O)c2ccc(CN3CCCC3)cc2)cc1OCC [Compound 26, N-(4-(3,4-Diethoxyphenyl)-1,2,5-oxadiazol-3-yl)-4-((pyrrolidin-1-yl)methyl)benzamide] |  | 102 µM | 8.13 ×10⁻⁶ cm/s | 251 °C (dec.) | 1.87 µM | 
CCOc1ccc(-c2nonc2NC(=O)c2cccc(OC(F)(F)F)c2)cc1OCC [Compound 15, N-(4-(3,4-Diethoxyphenyl)-1,2,5-oxadiazol-3-yl)-3-(trifluoromethoxy)benzamide] | 0.098 µM | 14 µM |  |  |  | 
CCOc1ccc(-c2nonc2NC(=O)c2ccc(CN3CCOCC3)cc2)cc1OCC [Compound 27, N-(4-(3,4-Diethoxyphenyl)-1,2,5-oxadiazol-3-yl)-4-((morpholin-4-yl)methyl)benzamide] | 0.674 to 4.05 µM | 116 µM |  | 269 °C (dec.) | 0.586 µM | IC50 (P. falciparum NF54; chloroquine-sensitive strain): 0.674 µM
CCOc1ccc(-c2nonc2NC(=O)c2cccc(F)c2)cc1OCC [Compound 14, N-(4-(3,4-Diethoxyphenyl)-1,2,5-oxadiazol-3-yl)-3-fluorobenzamide] | 0.049 µM | 41.1 µM |  | 250 °C | 0.108 µM | 
CCOc1ccc(-c2nonc2NC(=O)CCN2CCOCC2)cc1OCC [Compound 35, N-(4-(3,4-Diethoxyphenyl)-1,2,5-oxadiazol-3-yl)-3-(morpholin-4-yl)propanamide] | 30.2 µM | 147 µM | 6.08 ×10⁻⁶ cm/s |  | 19 µM | 
CCOc1ccc(-c2nonc2NC(=O)CN2CCCC2)cc1OCC [Compound 31, N-(4-(3,4-Diethoxyphenyl)-1,2,5-oxadiazol-3-yl)-2-(pyrrolidin-1-yl)acetamide] | 7.24 µM | 242 µM | 10.2 to 10.8 ×10⁻⁶ cm/s |  | 5.02 µM | Pe (effective permeability) [1]: 10.80 10^−6 cm/s
C[C@@H]1CC[C@H]2[C@@H](C)C(=O)O[C@@H]3O[C@@]4(C)CC[C@@H]1[C@]32OO4 [ART, artemisinin, reference compound] |  | 450 µM |  |  | 0.0064 µM | 
CCOc1ccc(-c2nonc2NC(=O)c2cccc(C)c2)cc1OCC [Compound 1, N-(4-(3,4-Diethoxyphenyl)-1,2,5-oxadiazol-3-yl)-3-methylbenzamide] | 0.011 µM | 159 µM | 2.77 ×10⁻⁶ cm/s |  | 0.011 µM | antiplasmodial activity against multiresistant strain K1 [2]: shows antiplasmodial activity; antiplasmodial activity against multiresistant strain Dd2 [3]: shows antiplasmodial activity; activity against liver schizonts [4]: activity against liver schizonts; activity against early gametocyte stages (early gametocyte stages): working against early gametocyte stages; inhibition of PfATP4 (Na+-efflux pump PfATP4): likely to inhibit
CCN(CC)CCCC(C)Nc1ccnc2cc(Cl)ccc12 (stereo not drawn) [CQ, chloroquine, reference compound] |  | 188 µM |  |  |  | IC50 (P. falciparum K1; K1, read-out: P.f. K1 IC50): 0.15 µM
CCOc1ccc(-c2nonc2NC(=O)c2cccc(C(F)(F)F)c2)cc1OCC [Compound 13, N-(4-(3,4-Diethoxyphenyl)-1,2,5-oxadiazol-3-yl)-3-(trifluoromethyl)benzamide] | 0.019 µM | 9.97 µM | 4.26 ×10⁻⁶ cm/s | 153 °C | 0.007 µM | 
CCOc1ccc(-c2nonc2NC(=O)CCN2CCCC2)cc1OCC [Compound 34, N-(4-(3,4-Diethoxyphenyl)-1,2,5-oxadiazol-3-yl)-3-(pyrrolidin-1-yl)propanamide] | 56 µM | 140 µM | 6.93 ×10⁻⁶ cm/s |  | 2.41 µM | 
CCOc1ccc(-c2nonc2NC(=O)c2cccc(CN3CCCC3)c2)cc1OCC [Compound 28, N-(4-(3,4-Diethoxyphenyl)-1,2,5-oxadiazol-3-yl)-3-((pyrrolidin-1-yl)methyl)benzamide] | 0.192 µM | 77.2 µM | 7.26 ×10⁻⁶ cm/s |  |  | 
CCOc1ccc(-c2nonc2NC(=O)c2ccccc2C)cc1OCC [Compound 11, N-(4-(3,4-Diethoxyphenyl)-1,2,5-oxadiazol-3-yl)-2-methylbenzamide] | 0.343 to 0.831 µM | 14.9 µM |  |  |  | IC50 (P. falciparum NF54; chloroquine-sensitive strain): 0.343 µM
CCOc1ccc(-c2nonc2NC(=O)CN2CCOCC2)cc1OCC [Compound 32, N-(4-(3,4-Diethoxyphenyl)-1,2,5-oxadiazol-3-yl)-2-(morpholin-4-yl)acetamide] | 24.2 µM | 266 µM | 10.2 to 10.8 ×10⁻⁶ cm/s |  | 19.5 µM | Pe (effective permeability) [1]: 10.25 10^−6 cm/s
CCOc1ccc(-c2nonc2NC(=O)c2ccc(OC)c(Cl)c2)cc1OCC [Compound 16, 3-Chloro-N-(4-(3,4-diethoxyphenyl)-1,2,5-oxadiazol-3-yl)-4-methoxybenzamide] | 0.014 to 0.167 µM | 20 µM |  | 260 °C (dec.) |  | IC50 (P. falciparum NF54; chloroquine-sensitive strain): 0.014 µM
CCOc1ccc(-c2nonc2NC(=O)c2ccccc2)cc1OCC [Compound 10, N-(4-(3,4-Diethoxyphenyl)-1,2,5-oxadiazol-3-yl)benzamide] | 0.076 µM | 111 µM |  | 199 °C | 0.091 µM | 
CCOc1ccc(-c2nonc2NC(=O)c2ccccc2C(F)(F)F)cc1OCC [Compound 12, N-(4-(3,4-Diethoxyphenyl)-1,2,5-oxadiazol-3-yl)-2-(trifluoromethyl)benzamide] |  | 14.2 µM |  |  |  | 
Cc1cccc(C(=O)Nc2nonc2-c2ccccc2)c1 [Compound 39, 3-Methyl-N-(4-phenyl-1,2,5-oxadiazol-3-yl)benzamide] | 21.5 µM | 66 µM | 8.47 ×10⁻⁶ cm/s |  | 39.9 µM | 
CCOc1ccc(-c2nonc2NC(=O)c2ccc(OC)c(F)c2)cc1OCC [Compound 17, N-(4-(3,4-Diethoxyphenyl)-1,2,5-oxadiazol-3-yl)-3-fluoro-4-methoxybenzamide] |  | 35 µM | 3.9 ×10⁻⁶ cm/s | 232 °C (dec.) |  | 
COc1cc([C@@H]2c3cc4c(cc3[C@H](O)[C@H]3COC(=O)[C@H]23)OCO4)cc(OC)c1OC [POD, podophyllotoxin, reference compound] |  | 0.012 µM |  |  |  | 
